Data from patent US20060018857A1, “Conditioning surface-active preparation” (priority 2004, published 2006).

How the values were obtained:
[1] = Half head test, shampoo versus standard; type: in vivo, human
Protocol: Each test was conducted on 10 volunteers by trained and skilled people. Each half of the head was prewashed and then treated with the corresponding products. During the test, performance properties, such as skin feel, were evaluated first, followed by such parameters as combability, feel, luster and volume.

[2] = Adsorption of sodium lauryl ether sulfate onto skin; design: species or system human; conditions: FIG. 4; versus standard co-surfactant cocoglutamate
[3] = Sensory assessment of skin feel on the treated forearm; type: in vivo, human; conditions: FIG. 1; versus standard co-surfactant Cocamidopropylbetaine; inside of forearm
Source text: The conditioning properties of two surfactant mixtures were compared with one another by sensory assessment. After the sample composition had been completely absorbed onto the skin, the upper side of the middle and index fingers was slowly drawn without pressing over the treated inside of the forearm. If the skin surface was felt to be without friction, this corresponded to a soft skin feel.
In FIG. 1, marks in the left column favor the standard co-surfactant and marks in the right column favor the inventive co-surfactant for that property. In FIG. 1, square marks indicate a high degree of significance; diamonds indicate a medium degree of significance and circles indicate a low degree of significance (as indicated also by the length of the horizontal lines through the marks).

[4] = FIG. 2, versus standard co-surfactant Cocamidopropylbetaine, no added polymer
[5] = FIG. 3, versus standard co-surfactant Cocamidopropylbetaine and a polymer

Laureth-7 Citrate
Combability of hair in the dry and wet state [1, 4]: can be combed far better both in the dry and in the wet state
Feel properties of hair [1, 4]: distinctly better
Conditioning properties ([1]; FIG. 2, versus standard co-surfactant Cocamidopropylbetaine, no added polymer, 10 volunteers): clearly superior conditioning properties
Combability of dry hair [1, 5]: improved combability of dry hair
Feel of the hair [1, 5]: more pleasant feel of the hair
Prevention of adsorption of sodium lauryl ether sulfate onto skin [2]: prevented considerably more effectively
Skin feel (softness), sensory assessment [3]: felt to be softer
